This note sets out measurements from US20090170872A1, “Compounds and Their Pharmaceutical Use” (Orchid Research Laboratories Limited, priority 2005, published 2009).

The subject of data set [1] is TNF-α. The data set can be described thus: TNF-α production in LPS-stimulated human whole blood (ELISA). It counts as cell-based. The note with it: LPS 4 hours, read-out: % TNF-α Inhibitory Activity in (hPBMC). As for the experimental part: This assay determines the effect of the test compounds on the production of TNF-α in human whole blood. TNF-α assay is carried out as described by Armin Hatzelmann and Christian Schudt (J Pharm Exp Ther 297, 261, 2001). Compounds are tested for their ability to inhibit the activity of TNF-α in human whole blood. The test compounds are pre-incubated for 15 minutes at 37° C. and then stimulated with Lipopolysaccharide (Salmonella abortus equi, 1 µg/ml) for 4 hours at 37° C. in 5% CO2. The levels of TNF-α are estimated using Enzyme linked Immunosorbent assay performed in a 96 well format as per the procedure of the manufacturer (Cayman Chemical, Ann Arbor, USA).

In the case of `Cc1nccn1CC1CCc2c(c3ccccc3n2C)/C1=N/OCc1ccc([N+](=O)[O-])cc1` (stereo not shown) [Example 15, (4E)-9-methyl-3-[(2-methyl-1H-imidazol-1-yl)methyl]-1,2,3,9-tetrahydro-4H-carbazol-4-one O-(4-nitrobenzyl)oxime], in data set [1], the inhibition at 1 µM was determined as 48.1% and the inhibition at 10 µM turned out to be 41.2%. As to `COc1ccc(C(=O)O/N=C2/c3c(n(C)c4ccccc34)CCC2Cn2ccnc2C)cc1` (stereo not shown) [Example 35, (4E)-9-methyl-3-[(2-methyl-1H-imidazol-1-yl)methyl]-1,2,3,9-tetrahydro-4H-carbazol-4-one O-4-methoxybenzoyloxime], the melting point lay within 200 to 203 °C.

On to `Cc1cc(C(=O)O/N=C2/c3c(n(C)c4ccccc34)CCC2Cn2ccnc2C)no1` (stereo not shown) [Example 50, (4E)-9-methyl-3-[(2-methyl-1H-imidazol-1-yl)methyl]-1,2,3,9-tetrahydro-4H-carbazol-4-one O-5-methyl-3-isoxazoloyloxime], for which the melting point was in the range of 154 to 157 °C.

For `Cc1nccn1CC1CCc2c(c3ccccc3n2C)/C1=N/OC(=O)c1ccc(C(F)(F)F)cc1` (stereo not shown) [Example 34], the melting point fell in the range of 200 to 203 °C. On the same count and under the same terms, for `Cc1nccn1CC1CCc2c(c3ccccc3n2C)/C1=N/OC(=O)c1ccsc1` (stereo not shown) [Example 53] the value was 171 to 175 °C; for `Cc1ccsc1C(=O)O/N=C1/c2c(n(C)c3ccccc23)CCC1Cn1ccnc1C` (stereo not shown) [Example 49, (4E)-9-methyl-3-[(2-methyl-1H-imidazol-1-yl)methyl]-1,2,3,9-tetrahydro-4H-carbazol-4-one O-3-methyl-2-thiophenoyloxime], 177 to 180 °C. On to `Cc1nccn1CC1CCc2c(c3ccccc3n2C)/C1=N/OCc1cccnc1` (stereo not shown) [Example 10, (4E)-9-methyl-3-[(2-methyl-1H-imidazol-1-yl)methyl]-1,2,3,9-tetrahydro-4H-carbazol-4-one O-(pyidin-3-ylmethyl)oxime], for which, in data set [1], the inhibition at 1 µM came to 19.9% and the inhibition at 10 µM was 50.5%. The like results for `Cc1nccn1CC1CCc2c(c3ccccc3n2C)/C1=N/Oc1ccc(C(F)(F)F)c(Cl)n1` (stereo not shown) [Example 22, (4E)-9-methyl-3-[(2-methyl-1H-imidazol-1-yl)methyl]-1,2,3,9-tetrahydro-4H-carbazol-4-one O-(-chloro-5-trifluoromethyl-pyridin-2-yl)oxime] were, in that order, 53.1% and 48%. In the case of `COc1ccc(CO/N=C2/c3c(n(C)c4ccccc34)CCC2Cn2ccnc2C)cc1` (stereo not shown) [Example 5, (4E)-9-methyl-3-[(2-methyl-1H-imidazol-1-yl)methyl]-1,2,3,9-tetrahydro-4H-carbazol-4-one O-(4-methoxybenzyl)oxime], in data set [1], the inhibition at 1 µM came to 18.4% and the inhibition at 10 µM worked out at 52.4%.

For the molecule `Cc1nccn1CC1CCc2c(c3ccccc3n2C)/C1=N/OCC(F)(F)F` (stereo not shown) [Example 4, (4E)-9-methyl-3-[(2-methyl-1H-imidazol-1-yl)methyl]-1,2,3,9-tetrahydro-4H-carbazol-4-one O-2,2,2-trifluoroethyloxime], in data set [1], the inhibition at 1 µM amounted to 19.8% and the inhibition at 10 µM amounted to 26.1%.

Consider `Cc1nccn1CC1CCc2c(c3ccccc3n2C)/C1=N/OCc1ccncc1` (stereo not shown) [Example 11, (4E)-9-methyl-3-[(2-methyl-1H-imidazol-1-yl)methyl]-1,2,3,9-tetrahydro-4H-carbazol-4-one O-(pyridin-4-ylmethyl)oxime], for which, in data set [1], the inhibition at 1 µM is 11.7% and the inhibition at 10 µM was determined as 47.5%. The matching figures for `Cc1nccn1CC1CCc2c(c3ccccc3n2C)/C1=N/OC(=O)c1ccc(Br)o1` (stereo not shown) [Example 45, (4E)-9-methyl-3-[(2-methyl-1H-imidazol-1-yl)methyl]-1,2,3,9-tetrahydro-4H-carbazol-4-one O-5-bromo-2-furanoyloxime]: 12.3% and 32.1%.
